These are literature values, as cited in patent publication US20090239845A1, “PYRAZOLE COMPOUNDS AS PROSTAGLANDIN RECEPTORS LIGANDS” (priority 2005, published 2009).

Data set [1] has as its system rat model of chronic constriction injury. The note with it: Anesthesia and Analgesia 2001, 93, 1012-7; cited from earlier work.
For data set [2], the system named is rodent model of post-operative pain. The note with it: Anesthesia and Analgesia 2001, 92, 233-238; cited from earlier work.

SMILES strings stand for the structures.

For the molecule `Cc1cc(Cl)ccc1S(=O)(=O)NC[C@H]1C2CCC(CC2)[C@@H]1/C=C\CCCC(=O)O` [ONO-8711], the hyperalgesia and allodynia result in data set [1] is “reduces hyperalgesia and allodynia”. Further, in data set [2], the mechanical hyperalgesia entry was “inhibits mechanical hyperalgesia”.
